Test results published in patent US20070287752A1, “Ophthalmic Compositions Comprising A Branched, Glycerol Compound” (priority 2006, published 2007).

Tested on: Fusarium solani (ATCC 36031)
Experiment: Preservative/disinfectant system efficacy testing (log reduction)
Format: cell-based
Procedure: The ophthalmic compositions are evaluated in accordance with specific procedures outlined by the US Food & Drug Administration and the International Organization for Standardization for the testing of microbiocidal efficacy.

With `CCCCC(CC)COCC(O)CO` (centres unmarked) [EHOPD, 3-[(2-ethylhexyl)oxy]-1,2-propanediol] the “log reduction F. solani” value (1 hr, Table 5A multi-purpose lens care solution, 10% organic soil, disinfectant concentrations as in label) was 3.1, the “log reduction F. solani” value (1 hr, phosphate buffered saline, 10% organic soil, concentrations as in label (Table 4)) was 2.5 and the “log reduction F. solani” value (4 hr, Table 5A multi-purpose lens care solution, 10% organic soil, disinfectant concentrations as in label) was 5.0. The “log reduction F. solani” value (4 hr, phosphate buffered saline, 10% organic soil, concentrations as in label (Table 4)) was 5.0, the “log reduction F. solani” value (EHOPD 0.0001 wt %, 1 hr, borate buffered saline, 10% organic soil) was 1.3 and the “log reduction F. solani” value (EHOPD 0.0001 wt %, 1 hr, phosphate buffered saline, 10% Organic Soil) was 2.3. For the same compound, the “log reduction F. solani” value (EHOPD 0.0001 wt %, 4 hr, borate buffered saline, 10% organic soil) was 2.1, the “log reduction F. solani” value (EHOPD 0.0001 wt %, 4 hr, phosphate buffered saline, 10% Organic Soil) was 2.3 and the “log reduction F. solani” value (EHOPD 0.001 wt %, 1 hr, borate buffered saline, 10% organic soil) was 1.9. The “log reduction F. solani” value (EHOPD 0.001 wt %, 1 hr, phosphate buffered saline, 10% Organic Soil) was 1.8, the “log reduction F. solani” value (EHOPD 0.001 wt %, 4 hr, borate buffered saline, 10% organic soil) was 1.9 and the “log reduction F. solani” value (EHOPD 0.001 wt %, 4 hr, phosphate buffered saline, 10% Organic Soil) was 2.9. For the same compound, the “log reduction F. solani” value (EHOPD 0.01 wt %, 1 hr, Table 3A multi-purpose lens care formulation, 10% organic soil) was 0.3, the “log reduction F. solani” value (EHOPD 0.01 wt %, 1 hr, borate buffered saline, 10% organic soil) was 2.4 and the “log reduction F. solani” value (EHOPD 0.01 wt %, 1 hr, phosphate buffered saline, 10% Organic Soil) was 3.6. The “log reduction F. solani” value (EHOPD 0.01 wt %, 4 hr, Table 3A multi-purpose lens care formulation, 10% organic soil) was 0.5, the “log reduction F. solani” value (EHOPD 0.01 wt %, 4 hr, borate buffered saline, 10% organic soil) was greater than 5.8 and the “log reduction F. solani” value (EHOPD 0.01 wt %, 4 hr, phosphate buffered saline, 10% Organic Soil) was greater than 5.8. For the same compound, the “log reduction F. solani” value (EHOPD 0.1 wt %, 1 hr, Table 3A multi-purpose lens care formulation, 10% organic soil) was 0.3, the “log reduction F. solani” value (EHOPD 0.1 wt %, 1 hr, borate buffered saline, 10% organic soil) was greater than 5.8 and the “log reduction F. solani” value (EHOPD 0.1 wt %, 1 hr, phosphate buffered saline, 10% Organic Soil) was greater than 5.8. For the same compound, the “log reduction F. solani” value (EHOPD 0.1 wt %, 4 hr, Table 3A multi-purpose lens care formulation, 10% organic soil) was 0.5, the “log reduction F. solani” value (EHOPD 0.1 wt %, 4 hr, borate buffered saline, 10% organic soil) was greater than 5.8 and the “log reduction F. solani” value (EHOPD 0.1 wt %, 4 hr, phosphate buffered saline, 10% Organic Soil) was greater than 5.8. For the same compound, the “log reduction F. solani” value (EHOPD 0.15 wt %, 1 hr, Table 3A multi-purpose lens care formulation, 10% organic soil) was 0.5, the “log reduction F. solani” value (EHOPD 0.15 wt %, 4 hr, Table 3A multi-purpose lens care formulation, 10% organic soil) was greater than 4.7 and the “log reduction F. solani” value (EHOPD 0.25 wt %, 1 hr, Table 3A multi-purpose lens care formulation, 10% organic soil) was 0.8. The “log reduction F. solani” value (EHOPD 0.25 wt %, 4 hr, Table 3A multi-purpose lens care formulation, 10% organic soil) was greater than 4.7, the “log reduction F. solani” value (EHOPD 0.50 wt %, 1 hr, Table 3A multi-purpose lens care formulation, 10% organic soil) was greater than 4.7 and the “log reduction F. solani” value (EHOPD 0.5 wt %, 1 hr, borate buffered saline, 10% organic soil) was greater than 5.8. For the same compound, the “log reduction F. solani” value (EHOPD 0.5 wt %, 1 hr, phosphate buffered saline, 10% Organic Soil) was greater than 5.8, the “log reduction F. solani” value (EHOPD 0.50 wt %, 4 hr, Table 3A multi-purpose lens care formulation, 10% organic soil) was greater than 4.7 and the “log reduction F. solani” value (EHOPD 0.5 wt %, 4 hr, borate buffered saline, 10% organic soil) was greater than 5.8. The “log reduction F. solani” value (EHOPD 0.5 wt %, 4 hr, phosphate buffered saline, 10% Organic Soil) was greater than 5.8, the “log reduction F. solani” value (EHOPD 0.75 wt %, 1 hr, Table 3A multi-purpose lens care formulation, 10% organic soil) was greater than 4.7 and the “log reduction F. solani” value (EHOPD 0.75 wt %, 4 hr, Table 3A multi-purpose lens care formulation, 10% organic soil) was greater than 4.7. For the same compound, the “log reduction F. solani” value (EHOPD 1.0 wt %, 1 hr, Table 3A multi-purpose lens care formulation, 10% organic soil) was greater than 4.7 and the “log reduction F. solani” value (EHOPD 1.0 wt %, 4 hr, Table 3A multi-purpose lens care formulation, 10% organic soil) was greater than 4.7.
